Source: ChEMBL document CHEMBL4418911, “Methods to identify modulators” (2012)
One block for each compound: values may come before it. Calls of active or inactive are those of the source. The calls are words filed in the database; no cut-off is given here.

Assays:
[1] = target: T1, Taste receptor type 2 member 16 (Homo sapiens) (UniProt Q9NYV7); experiment: (§1) Activation of full-length human TAS2R16 expressed in HEK293T/Galpha16-gustducin 44 cells assessed as effect on calcium flux by measuring deltaF/F0 ratio at 0.625 mM in presence of (E)-4-(2,2,3-trimethylcyclopent-3-enyl)but-2-enoic acid by Fluo-4 dye based FLIPR assay; format: functional, cell-based
T1 sequence (whole entry): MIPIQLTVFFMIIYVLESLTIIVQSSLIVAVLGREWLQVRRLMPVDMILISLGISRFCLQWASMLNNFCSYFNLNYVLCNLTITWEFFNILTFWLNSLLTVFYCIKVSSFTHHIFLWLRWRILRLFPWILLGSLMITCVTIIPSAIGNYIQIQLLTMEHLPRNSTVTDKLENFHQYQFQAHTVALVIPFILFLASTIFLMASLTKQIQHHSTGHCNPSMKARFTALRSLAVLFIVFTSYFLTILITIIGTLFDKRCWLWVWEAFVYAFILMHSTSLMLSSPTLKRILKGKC

[2] = target: T1, Taste receptor type 2 member 16 (Homo sapiens); experiment: Activation of full-length human TAS2R16 expressed in HEK293T/Galpha16-gustducin 44 cells assessed as effect on calcium flux by measuring deltaF/F0 ratio at 0.0391 mM in presence of (E)-4-(2,2,3-trimethylcyclopent-3-enyl)but-2-enoic acid by Fluo-4 dye based FLIPR assay; format: functional, cell-based
[3] = target: T1, Taste receptor type 2 member 16 (Homo sapiens); experiment: Activation of full-length human TAS2R16 expressed in HEK293T/Galpha16-gustducin 44 cells assessed as effect on calcium flux by measuring deltaF/F0 ratio at 0.3125 mM in presence of (E)-4-(2,2,3-trimethylcyclopent-3-enyl)but-2-enoic acid by Fluo-4 dye based FLIPR assay; format: functional, cell-based
[4] = target: T1, Taste receptor type 2 member 16 (Homo sapiens); experiment: Activation of full-length human TAS2R16 expressed in HEK293T/Galpha16-gustducin 44 cells assessed as effect on calcium flux by measuring deltaF/F0 ratio at 5 mM in presence of (E)-4-(2,2,3-trimethylcyclopent-3-enyl)but-2-enoic acid by Fluo-4 dye based FLIPR assay; format: functional, cell-based
[5] = target: T1, Taste receptor type 2 member 16 (Homo sapiens); experiment: Activation of full-length human TAS2R16 expressed in HEK293T/Galpha16-gustducin 44 cells assessed as effect on calcium flux by measuring deltaF/F0 ratio at 2.5 mM in presence of (E)-4-(2,2,3-trimethylcyclopent-3-enyl)but-2-enoic acid by Fluo-4 dye based FLIPR assay; format: functional, cell-based
[6] = target: T1, Taste receptor type 2 member 16 (Homo sapiens); experiment: Activation of full-length human TAS2R16 expressed in HEK293T/Galpha16-gustducin 44 cells assessed as effect on calcium flux by measuring deltaF/F0 ratio at 10 mM in presence of (E)-4-(2,2,3-trimethylcyclopent-3-enyl)but-2-enoic acid by Fluo-4 dye based FLIPR assay; format: functional, cell-based
[7] = target: T1, Taste receptor type 2 member 16 (Homo sapiens); experiment: Activation of full-length human TAS2R16 expressed in HEK293T/Galpha16-gustducin 44 cells assessed as effect on calcium flux by measuring deltaF/F0 ratio in presence of 4-(2,2,3-trimethylcyclo-pentyl)butanamide) by Fluo-4 dye based FLIPR assay; format: functional, cell-based
[8] = target: T1, Taste receptor type 2 member 16 (Homo sapiens); experiment: Activation of full-length human TAS2R16 expressed in HEK293T/Galpha16-gustducin 44 cells assessed as effect on calcium flux by measuring deltaF/F0 ratio at 0.0781 mM in presence of (E)-4-(2,2,3-trimethylcyclopent-3-enyl)but-2-enoic acid by Fluo-4 dye based FLIPR assay; format: functional, cell-based
[9] = target: T1, Taste receptor type 2 member 16 (Homo sapiens); experiment: Activation of full-length human TAS2R16 expressed in HEK293T/Galpha16-gustducin 44 cells assessed as effect on calcium flux by measuring deltaF/F0 ratio at 0.1563 mM in presence of (E)-4-(2,2,3-trimethylcyclopent-3-enyl)but-2-enoic acid by Fluo-4 dye based FLIPR assay; format: functional, cell-based
[10] = target: T2, Taste receptor type 2 member 31 (Homo sapiens) (UniProt P59538); experiment: as §1, with “TAS2R44” for “TAS2R16”, “6.25” for “0.625”, “assay (reference value: 0.027 +/- 0.029)” for “assay”; format: functional, cell-based
T2 sequence (whole entry): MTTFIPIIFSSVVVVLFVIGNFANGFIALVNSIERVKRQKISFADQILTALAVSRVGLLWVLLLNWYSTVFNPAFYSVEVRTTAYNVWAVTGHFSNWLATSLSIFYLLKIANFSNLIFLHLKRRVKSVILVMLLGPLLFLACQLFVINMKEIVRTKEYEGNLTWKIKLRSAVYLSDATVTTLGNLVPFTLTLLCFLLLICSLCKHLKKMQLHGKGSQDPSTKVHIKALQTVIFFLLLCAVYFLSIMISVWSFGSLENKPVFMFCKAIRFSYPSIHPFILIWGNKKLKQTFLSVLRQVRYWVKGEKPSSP

[11] = system: HEK-293T; experiment: Effect on calcium flux in HEK293T/Galpha16-gustducin 44 cells assessed as deltaF/F0 ratio at 100 mM in presence of (E)-4-(2,2,3-trimethylcyclopent-3-enyl)but-2-enoic acid, by Fluo-4 dye based FLIPR assay; format: functional, Homo sapiens
[12] = target: T3, Taste receptor type 2 member 31 (Homo sapiens, UniProt P59538); experiment: Agonist activity at full-length human TAS2R44 expressed in HEK293T/Galpha16-gustducin 44 cells assessed as effect on calcium flux by measuring deltaF/F0 ratio in presence of (E)-4-(2,2,3-trimethylcyclopent-3-enyl)but-2-enoic acid by Fluo-4 dye based FLIPR assay; format: functional, cell-based
T3 sequence (P59538 whole entry): T2 sequence (whole entry)

[13] = target: T4, Taste receptor type 2 member 1 (Homo sapiens) (UniProt Q9NYW7); experiment: Activation of full-length human TAS2R1 expressed in HEK293T/Galpha16-gustducin 44 cells assessed as effect on calcium flux by measuring deltaF/F0 ratio by Fluo-4 dye based FLIPR assay; format: functional, cell-based
T4 sequence (whole entry): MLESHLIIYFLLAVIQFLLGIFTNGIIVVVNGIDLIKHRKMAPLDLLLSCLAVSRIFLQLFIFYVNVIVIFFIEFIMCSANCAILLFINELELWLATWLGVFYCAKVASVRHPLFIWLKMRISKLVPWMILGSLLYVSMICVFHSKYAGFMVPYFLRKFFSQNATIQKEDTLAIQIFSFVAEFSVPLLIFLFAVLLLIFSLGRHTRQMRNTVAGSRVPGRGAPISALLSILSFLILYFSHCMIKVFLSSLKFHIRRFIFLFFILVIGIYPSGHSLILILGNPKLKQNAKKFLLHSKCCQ

[14] = target: T2, Taste receptor type 2 member 31 (Homo sapiens); experiment: as §1, with “TAS2R44” for “TAS2R16”, “0.3906” for “0.625”, “assay (reference value: 0.046 +/- 0.048)” for “assay”; format: functional, cell-based
[15] = organism: Homo sapiens; experiment: Induction of bitter sensitivity in bitter sensitive human panelists tasting solution containing 3 mM compound in presence of 13 ppm (E)-4-(2,2,3-trimethylcyclopent-3-enyl)but-2-enoic acid; format: functional, organism-based
[16] = target: T2, Taste receptor type 2 member 31 (Homo sapiens); experiment: Agonist activity at full-length human TAS2R44 expressed in HEK293T/Galpha16-gustducin 44 cells assessed as effect on calcium flux by measuring deltaF/F0 ratio in presence of 4-(2,2,3-trimethylcyclo-pentyl)butanamide) by Fluo-4 dye based FLIPR assay; format: functional, cell-based
[17] = target: T2, Taste receptor type 2 member 31 (Homo sapiens); experiment: as §1, with “TAS2R44” for “TAS2R16”, “0.7813” for “0.625”, “assay (reference value: 0.038 +/- 0.042)” for “assay”; format: functional, cell-based
[18] = organism: Homo sapiens; experiment: Induction of bitter sensitivity in bitter sensitive human panelists tasting solution containing 3 mM compound in absence of 13 ppm (E)-4-(2,2,3-trimethylcyclopent-3-enyl)but-2-enoic acid; format: functional, organism-based
[19] = target: T5, Taste receptor type 2 member 46 (Homo sapiens) (UniProt P59540); experiment: Activation of full-length human TAS2R46 expressed in HEK293T/Galpha16-gustducin 44 cells assessed as effect on calcium flux by measuring deltaF/F0 ratio by Fluo-4 dye based FLIPR assay; format: functional, cell-based
T5 sequence (whole entry): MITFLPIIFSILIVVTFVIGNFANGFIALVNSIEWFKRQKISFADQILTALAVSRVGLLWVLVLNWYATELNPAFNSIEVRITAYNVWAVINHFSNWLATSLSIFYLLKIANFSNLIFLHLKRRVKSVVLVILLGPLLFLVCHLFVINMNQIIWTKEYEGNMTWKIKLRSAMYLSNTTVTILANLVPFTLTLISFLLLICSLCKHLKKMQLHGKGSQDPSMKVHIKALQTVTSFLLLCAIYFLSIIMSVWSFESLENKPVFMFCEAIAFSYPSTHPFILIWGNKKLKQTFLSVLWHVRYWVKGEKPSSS

[20] = target: T2, Taste receptor type 2 member 31 (Homo sapiens); experiment: (§2) Activation of full-length human TAS2R44 expressed in HEK293T/Galpha16-gustducin 44 cells assessed as effect on calcium flux by measuring deltaF/F0 ratio at 25 mM in presence of (E)-4-(2,2,3-trimethylcyclopent-3-enyl)but-2-enoic acid by Fluo-4 dye based FLIPR assay (reference value: 0.110 +/- 0.019); format: functional, cell-based
[21] = target: T2, Taste receptor type 2 member 31 (Homo sapiens); experiment: as §2, with “3.125” for “25”, “0.030” for “0.110”, “0.042)” for “0.019)”; format: functional, cell-based
[22] = target: T2, Taste receptor type 2 member 31 (Homo sapiens); experiment: as §2, with “12.5” for “25”, “0.051” for “0.110”, “0.004)” for “0.019)”; format: functional, cell-based
[23] = target: T6, Taste receptor type 2 member 10 (Homo sapiens) (UniProt Q9NYW0); experiment: Activation of full-length human TAS2R10 expressed in HEK293T/Galpha16-gustducin 44 cells assessed as effect on calcium flux by measuring deltaF/F0 ratio by Fluo-4 dye based FLIPR assay; format: functional, cell-based
T6 sequence (whole entry): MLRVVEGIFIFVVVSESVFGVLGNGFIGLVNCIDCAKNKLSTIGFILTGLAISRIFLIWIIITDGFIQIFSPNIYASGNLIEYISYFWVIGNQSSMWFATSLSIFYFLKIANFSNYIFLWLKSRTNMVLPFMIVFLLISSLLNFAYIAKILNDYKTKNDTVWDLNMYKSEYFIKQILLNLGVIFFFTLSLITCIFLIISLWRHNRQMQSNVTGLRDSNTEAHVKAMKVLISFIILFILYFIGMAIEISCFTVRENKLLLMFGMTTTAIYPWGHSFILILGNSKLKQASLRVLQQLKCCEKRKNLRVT

[24] = target: T2, Taste receptor type 2 member 31 (Homo sapiens); experiment: Activation of full-length human TAS2R44 expressed in HEK293T/Galpha16-gustducin 44 cells assessed as effect on calcium flux by measuring deltaF/F0 ratio at 50 mM in presence of (E)-4-(2,2,3-trimethylcyclopent-3-enyl)but-2-enoic acid by Fluo-4 dye based FLIPR assay (reference value: 0.192 +/- 0.011); format: functional, cell-based

Ratio [1]: 2.14 | Ratio [2]: -0.013 | Ratio [3]: 1.55 | Ratio [4]: 2.65 | Ratio [5]: 2.48 | Ratio [6]: 2.83 | Activity [7]: Active | Ratio [8]: 0.108 | Ratio [9]: 0.702
SMILES: OC[C@H]1O[C@@H](Oc2ccccc2)[C@H](O)[C@@H](O)[C@@H]1O

Ratio [10]: 0 | EC50 [12]: Not Active | Activity [13]: Dose-dependent effect | Ratio [14]: 0.011 | Activity [16]: Active | Ratio [17]: 0.01 | Activity [19]: Dose-dependent effect | Ratio [20]: -0.035 | Ratio [21]: 0.005 | Ratio [22]: -0.015 | Activity [23]: Dose-dependent effect | Ratio [24]: -0.025
SMILES: OC[C@H]1O[C@H](O[C@]2(CCl)O[C@H](CCl)[C@@H](O)[C@@H]2O)[C@H](O)[C@@H](O)[C@H]1Cl [SUCRALOSE]
Ratio [11]: -0.175 | Activity [15]: inactive | Activity [18]: Active
